In patent publication US11236086B2, “Substituted pyrrolopyridines as inhibitors of activin receptor-like kinase” (BLUEPRINT MEDICINES CORPORATION, priority 2017, dated 2022):

Molecular target: T1, ALK2R206H (mutant ALK2, N-terminally tagged with GST) (Homo sapiens, UniProt Q04771, R206H)
T1 construct: purchased Carna Bioscience or ThermoFisher 09-148 or PV6232
T1 sequence (Q04771 21-509 R206H): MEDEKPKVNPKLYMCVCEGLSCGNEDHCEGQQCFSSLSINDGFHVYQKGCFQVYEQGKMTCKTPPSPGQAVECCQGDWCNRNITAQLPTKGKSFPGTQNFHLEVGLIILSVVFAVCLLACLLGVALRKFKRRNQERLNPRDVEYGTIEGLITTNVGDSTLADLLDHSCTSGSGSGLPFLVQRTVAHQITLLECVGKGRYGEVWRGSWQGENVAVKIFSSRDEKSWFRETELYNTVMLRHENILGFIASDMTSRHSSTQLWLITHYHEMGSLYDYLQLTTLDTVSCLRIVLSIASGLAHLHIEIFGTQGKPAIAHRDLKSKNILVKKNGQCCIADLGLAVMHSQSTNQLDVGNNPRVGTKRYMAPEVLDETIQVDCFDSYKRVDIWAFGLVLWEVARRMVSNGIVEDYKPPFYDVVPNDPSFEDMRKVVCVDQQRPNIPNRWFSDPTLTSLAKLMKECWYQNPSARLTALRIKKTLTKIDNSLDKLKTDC
Experiment: ALK binding assay (LANTHASCREEN TR-FRET competitive binding, displacement of Kinase Tracer 178)
Details: read-out: Binding Assay (IC50 class)
Protocol: Example 10 ALK Binding Assays
Binding assays were conducted using the LANTHASCREEN® technology (ThermoFisher Scientific). LANTHASCREEN® is a competitive binding, displacement assay where the assumed steady state occupancy of the binding site is measured using a time-resolved, fluorescence energy transfer (TR-FRET) readout between a fluorescent tracer and Europium (Eu)-tagged antibody specific for the kinase or expression tag (e.g., GST) of interest. Displacement of the tracer by a compound of the disclosure reduces, and is directly proportional to, the TR-FRET between the tracer and the antibody. Tracer was used at a concentration equal to or near to its Kd for the kinase. The Eu-tagged antibody was typically used in excess to ensure sampling of all competent protein capable of binding the tracer.
For these assays, a mutant ALK2 was used that was N-terminally tagged with GST (ALK2R206H Carna Bioscience (09-148) or ALK2R206H ThermoFisher (PV6232)); a Eu-tagged anti-GST antibody (ThermoFisher) and Kinase Tracer 178 (ThermoFisher).
In all cases, the kinase (2-5 nM) was mixed with Eu-tagged antibody (4-10 nM) mix and tracer (50 nM) were incubated with test compound titrations prepared in 100% DMSO (1% DMSO final) for 30 minutes at room temperature. All reagents and compounds were dissolved in Kinase Buffer A (ThermoFisher) to achieve the final concentration. The plates were read on a PerkinElmer EnVision® multilabel plate reader or a BioTek Synergy Neo plate reader, and the assay signal was represented as a ratio of the TR-FRET emission (λex 330 nm, λ^em […] and λ^em 665 nm). This readout was normalized to 0% and 100% inhibited control wells, plotted against inhibitor concentration, and fitted to a 4-parameter log dose response curve.
The results of this assay are shown in Table 3 in the column labelled “Binding Assay” wherein “A” represents an IC50 of less than or equal to 10 nM; “B” represents an IC50 of greater than 10 nM and less than or equal to 50 nM; and “C” represents an IC50 of greater than 50 nM. Blank values in the table indicate that the particular compound was not tested in this assay.

IC50 [nM]	SMILES
≤ 10	Cn1cc(-c2cc3c(N4CCN(C(=O)C5CCCCC5)CC4)ccnc3[nH]2)cn1 [Compound 134]
≤ 10	CC(C)N1CCN(c2ccc(-c3cc4c(N5CCN(C(=O)C6CC6)CC5)ccnc4[nH]3)cc2)CC1 [Compound 438]
≤ 10	Cn1cc(-c2[nH]c3nccc(N4CCN(C(=O)O[C@H]5CCOC5)CC4)c3c2Cl)cn1 [Compound 330]
≤ 10	O=C(C1CC1)N1CCN(c2ccnc3[nH]c(-c4ccc(C5(O)CCCC5)cc4)cc23)CC1 [Compound 329]
≤ 10	Cc1nc(-c2cc3c(N4CCN(C(=O)O[C@@H]5CC(F)(F)C5(F)F)CC4)ccnc3[nH]2)cn1C [Compound 433]
≤ 10	O=C(OC1COC1)N1CCN(c2ccnc3[nH]c(-c4ccc([C@]5(O)CCOC5)cc4)cc23)CC1 [Compound 429]
≤ 10	CCOC(=O)N1CCN(c2ccnc3[nH]c(-c4ccc([C@@]5(O)CCOC5)cc4)cc23)CC1 [Compound 355]
≤ 10	Cn1cnc(-c2[nH]c3nccc(N4CCN(C(=O)OC5COC5)CC4)c3c2C#N)c1 [Compound 208]
≤ 10	O=C(OC1COC1)N1CCN(c2ccnc3[nH]c(-c4ncc(C5CC5)s4)cc23)CC1 [Compound 312]
≤ 10	CCN1CCN(c2ccc(-c3cc4c(N5CCN(C(=O)C6CC6)CC5)ccnc4[nH]3)c(F)c2)CC1 [Compound 444]
≤ 10	CCOC(=O)N1CCN(c2ccnc3[nH]c(-c4ccc(C5(OC)CCN(C(C)CF)CC5)cn4)cc23)CC1 (stereo not drawn) [Compound 476]
≤ 10	CCOC(=O)N1CCN(c2ccnc3[nH]c(-c4cccnc4)cc23)CC1 [Compound 8]
≤ 10	Cc1nc(-c2cc3c(N4CCN(C(=O)OC5COC5)CC4)ccnc3[nH]2)sc1C [Compound 250]
≤ 10	Cn1cc(-c2cc3c(N4CCN(C(=O)OCCC#N)CC4)ccnc3[nH]2)cn1 [Compound 71]
≤ 10	CCN1CCN(c2ccc(-c3cc4c(N5CCN(C(=O)C6CCC6)CC5)ccnc4[nH]3)cc2)CC1 [Compound 439]
10 to 50	O=C(C1CC1)N1CCN(c2ccnc3[nH]c(-c4ncco4)cc23)CC1 [Compound 1]
≤ 10	Cc1nc(-c2cc3c(N4CCN(C(=O)OC5CC(F)(F)C5)CC4)ccnc3[nH]2)cn1C [Compound 325]
≤ 10	N#Cc1cc(-c2cc3c(N4CCN(C(=O)OC5COC5)CC4)ccnc3[nH]2)cs1 [Compound 227]

Molecular target: T2, human ALK2 R206H (Homo sapiens, UniProt Q04771, R206H)
T2 construct: expressed in transfected cells; host or cells: HEK293 (ATCC CRL1573), lentivirus transduction, blasticidin selection
T2 sequence (Q04771 21-509 R206H): T1 sequence (Q04771 21-509 R206H)
Experiment: Cell-based ALK2-R206H cell activity assay (Smad1-Ser463/Ser465 phosphorylation by AlphaLISA in HEK293-ALK2-R206H cells)
Details: phospho-Smad1 AlphaLISA, read-out: Cell Line (Cell Assay, IC50 class)
Protocol: Example 11. Cell-Based ALK2-R206H Cell Activity Assay
A HEK293 (ATCC, Cat No. CRL1573) based stable cell line expressing human ALK2 R206H cDNA (synthesized by GeneScript, Piscataway, N.J.) and a FLAG tag at the C-terminus was generated by lentivirus transduction and subsequent blasticidin (Life Technologies, Cat No. A1113902) selection at 10 μg/ml for >2 wks. This cell line was named HEK293-ALK2-R206H.
B. Measurement of Smad1-Ser463/Ser465 Phosphorylation by AlphaLISA
HEK293-ALK2-R206H cells were grown, harvested, and then resuspended in serum-free, phenol red-free DMEM high glucose media (Life Technologies, Cat No. 31053). The media also contained 50 units/ml penicillin and 50 μg/ml streptomycin (Life Technologies, Cat. No. 15070-063). HEK293-ALK2-R206H cells were then plated in white opaque 384-wells microplates (2×10^4/well) (OptiPlate-384, PerkinElmer, Waltham, Mass., Cat No. 6007299) overnight (>16h) at 37° C. 5% CO2 for use in the assay.
Test compounds were first diluted to 4 mM or 0.4 mM and then serially diluted 3-fold into 10 different concentrations using DMSO. Each concentration of compound was further diluted 40-fold with phenol red-free DMEM (Life Technologies, Cat No. 31053). 2 μl of the diluted compounds were then dispensed into the HEK293-ALK2-R206H cell-containing wells of the microplates in duplicates. In this way, each compound was tested in 10 doses (3-fold serial dilution with the top concentration being 10 μM or 1 μM). Liquid handling was achieved using a Bravo Automated Liquid Handling Platform (Agilent Technologies). DMSO without compound was used as a negative control. The positive control was 1 μM LDN193189, a known bone morphogenetic protein (BMP inhibitor).
After 2-3 hours of incubation with test compound or control, the cells were lysed and signal was developed using ALPHASCREEN® SUREFIRE® SMAD1 (p-Ser463/465) cellular kinase assay kit (PerkinElmer, Cat No. TGRSM1S10K) following the manufacturer's recommended protocol. The microplates were read using Perkin Elmer ENVISION® plate reader (emission […]). The signal reflected the level of phospho-Ser/463/465-Smad1 in the lysate. The raw data were plotted using the DMSO negative and LDN193189 positive controls as the 0% and 100% inhibition, respectively. The 10-point dose response curve was used to calculate the IC50 values.
The results of this assay are shown in Table 3 in the column labeled “Cell Assay” wherein “A” represents an IC50 of less than or equal to 100 nM; “B” an IC50 of greater than 100 nM and less than or equal to 500 nM; “C” an IC50 of greater than 500 nM. Blank values in the table indicate that the particular compound was not tested in this assay.

IC50 [nM]	SMILES
100 to 500	Cn1cc(-c2cc3c(N4CCN(C(=O)C5CCCCC5)CC4)ccnc3[nH]2)cn1 [Compound 134]
≤ 100	CC(C)N1CCN(c2ccc(-c3cc4c(N5CCN(C(=O)C6CC6)CC5)ccnc4[nH]3)cc2)CC1 [Compound 438]
≤ 100	Cn1cc(-c2[nH]c3nccc(N4CCN(C(=O)O[C@H]5CCOC5)CC4)c3c2Cl)cn1 [Compound 330]
≤ 100	O=C(C1CC1)N1CCN(c2ccnc3[nH]c(-c4ccc(C5(O)CCCC5)cc4)cc23)CC1 [Compound 329]
≤ 100	Cc1nc(-c2cc3c(N4CCN(C(=O)O[C@@H]5CC(F)(F)C5(F)F)CC4)ccnc3[nH]2)cn1C [Compound 433]
≤ 100	O=C(OC1COC1)N1CCN(c2ccnc3[nH]c(-c4ccc([C@]5(O)CCOC5)cc4)cc23)CC1 [Compound 429]
≤ 100	CCOC(=O)N1CCN(c2ccnc3[nH]c(-c4ccc([C@@]5(O)CCOC5)cc4)cc23)CC1 [Compound 355]
≤ 100	Cn1cnc(-c2[nH]c3nccc(N4CCN(C(=O)OC5COC5)CC4)c3c2C#N)c1 [Compound 208]
≤ 100	O=C(OC1COC1)N1CCN(c2ccnc3[nH]c(-c4ncc(C5CC5)s4)cc23)CC1 [Compound 312]
≤ 100	CCN1CCN(c2ccc(-c3cc4c(N5CCN(C(=O)C6CC6)CC5)ccnc4[nH]3)c(F)c2)CC1 [Compound 444]
≤ 100	CCOC(=O)N1CCN(c2ccnc3[nH]c(-c4ccc(C5(OC)CCN(C(C)CF)CC5)cn4)cc23)CC1 (stereo not drawn) [Compound 476]
100 to 500	CCOC(=O)N1CCN(c2ccnc3[nH]c(-c4cccnc4)cc23)CC1 [Compound 8]
≤ 100	Cc1nc(-c2cc3c(N4CCN(C(=O)OC5COC5)CC4)ccnc3[nH]2)sc1C [Compound 250]
100 to 500	Cn1cc(-c2cc3c(N4CCN(C(=O)OCCC#N)CC4)ccnc3[nH]2)cn1 [Compound 71]
≤ 100	CCN1CCN(c2ccc(-c3cc4c(N5CCN(C(=O)C6CCC6)CC5)ccnc4[nH]3)cc2)CC1 [Compound 439]
> 500	O=C(C1CC1)N1CCN(c2ccnc3[nH]c(-c4ncco4)cc23)CC1 [Compound 1]
≤ 100	Cc1nc(-c2cc3c(N4CCN(C(=O)OC5CC(F)(F)C5)CC4)ccnc3[nH]2)cn1C [Compound 325]
100 to 500	N#Cc1cc(-c2cc3c(N4CCN(C(=O)OC5COC5)CC4)ccnc3[nH]2)cs1 [Compound 227]
